Test results: patent publication US10646600B2, “HER2 polypeptides useful for imaging and monitoring tumors and cancers” (GE HEALTHCARE LIMITED, priority 2013, dated 2020)
Entries after “also recorded” stand apart in the source; their conditions may differ.

Experiments:
[1] = test system: HER2; details: report by Smith-Jones and co-workers (36); cited from earlier work
[2] = test system: SKOV-3 xenografts; assay: PET-CT imaging and kinetic modeling, SKOV-3 xenografts; format: in vivo, mice
Procedure: […] […] To investigate response to HSP90 inhibition, SKOV-3 xenograft-bearing mice were treated with 50 mg/kg NVP-AUY922 or equivalent volume of vehicle (˜5 μL/g body weight; 10% DMSO and 5% Tween-20 in PBS) q.d. i.p. for three days. 24 h after the last treatment, animals were used for PET imaging.
Mice were anesthetized through isoflurane inhalation and scanned on a dedicated small animal PET-CT scanner (Siemens Multimodality Inveon, Erlangen, Germany). Low dose CT scans were first acquired (80 kVp, 0.5 mA, 220 degree rotation, 600 ms per degree exposure time, 80 μm reconstruction pixel size) for PET attenuation correction and to obtain an anatomical reference. PET images were acquired following a bolus i.v. injection of approximately 3.7 MBq [^18F]GE-226 in the tail vein. Dynamic emission scans were acquired in list mode format over 60 minutes. The acquired data were sorted into 0.5-mm sinogram bins and 19 time frames for image reconstruction by filtered back projection (4×15 seconds and 4×60 seconds followed by 11×300 seconds). The Siemens Inveon Research Workplace software was used for visualization of radiotracer uptake. 30 to 60-minute cumulative images of the dynamic data were employed to define 3-dimensional (3D) regions of interest (ROI). Arterial input function was estimated by drawing ROIs over the center of the heart cavity using 0.25 to 2 minutes of cumulative images. The count densities were averaged for all ROIs at each time point to obtain time versus radioactivity curves (TAC). Tumor TACs were normalized to injected dose measured by a VDC-304 dose calibrator (Veenstra Instruments, Joure, Netherlands) and normalized uptake was expressed as percentage injected dose per mL tissue (NUV; % ID/mL). Normalized uptake of radiotracer at 60 minutes (NUV60) was used for comparisons. For qualitative image visualization, cumulative images of the dynamic data (30 to 60 min) were also iteratively reconstructed (OSEM3D).
Kinetic analysis of PET data was performed applying a standard two-tissue irreversible compartmental model to fit each tumor TAC with the corresponding image-derived plasma TAC as input function (IF) to estimate K1 (mL/cm^3/min), k2, (1/min) and k3 (1/min) and the blood vascular component Vb (mL blood/mL tissue; unitless). The irreversible uptake rate Ki (mL/cm^3/min) was computed as K1×k3/(k2+k3). To estimate the kinetic parameters the measured tumor TAC (tTAC) was modeled as tTAC(t)=(1−Vb)h(t)⊗IF(t)+VbIF(t) with h(t) indicating the unknown tissue impulse function and ⊗ the convolution operator. The parameter vector p=[K1, k2, k3, Vb] was estimated with the standard Weighted Non-Linear Least Squares (WNLLS) by minimizing the Weighted Residual Sum of Squares (WRSS) function

[3] = test system: SKOV-3 cells; assay: In vitro uptake assay in SKOV-3 cells (blocking, siRNA, drug treatment, specific activity); format: cell-based, human; details: NVP-AUY922 for 24 h
Procedure: For siRNA-mediated HER2 knockdown, SKOV-3 cells were transfected with 25 nM scramble control (SCR; Dharmacon, Lafayette, Colo., ON-TARGETplus Non-targeting Pool, Cat. Nr: D-001810-10-05) or HER2-targeting siRNA (Invitrogen ERBB2 Silencer® Select Validated siRNA; Cat. Nr: 4457298) by reverse wet transfection with Lipofectamine RNAiMAX (Invitrogen) according to manufacturer's instructions. 3×10^5 cells were seeded in 12-well plates 48 h prior to uptake experiment. Target knockdown was verified by western blotting on cells that were transfected in parallel.
For all uptake studies in response to drug treatment, 2.5×10^5 SKOV-3 cells were seeded in complete medium 48 h prior to uptake experiments.
For baseline uptake in HER2 positive or negative lineages, 3×10^5 cells were seeded in complete media in 12-well plates (Corning, Tewksbury Mass.) and allowed to recover overnight. Cells were washed twice with serum-free medium and pulsed with 370 KBq in 500 μL serum-free medium for one h. For blocking studies, cells were co-incubated with tracer and 0.5 mg/mL cold unlabeled [^19F]GE-226[SEQ ID NO 1].
Cells were washed with PBS, trypsinized, neutralized with complete medium and centrifuged. The pellet was washed three times with PBS and lysed in 120 μL RIPA buffer (Sigma-Aldrich). The radioactivity of 100 μL lysate was counted on a Packard Cobra II gamma counter (Perkin Elmer). Radioactivity was normalized to applied radioactivity and protein content, which was determined for each sample by BCA assay (Pierce, Rockford, Ill.).

[4] = test system: HER2; assay: HER2 expression in SKOV-3 tumors after NVP-AUY922; format: in vivo, mice; details: 3 doses of 50 mg/kg NVP-AUY922 versus vehicle
Procedure: For blocking studies, SKOV-3 xenograft bearing mice were administered 500 μg (˜25 mg/kg) cold [^19F]GE-226[SEQ ID NO 1] intravenously (i.v.) through the tail vain 20 minutes before administration of radiotracer. […] To investigate response to HSP90 inhibition, SKOV-3 xenograft-bearing mice were treated with 50 mg/kg NVP-AUY922 or equivalent volume of vehicle (˜5 μL/g body weight; 10% DMSO and 5% Tween-20 in PBS) q.d. i.p. for three days. 24 h after the last treatment, animals were used for PET imaging.
Excised and snap frozen tumor tissue samples were homogenized in RIPA lysis buffer (Sigma-Aldrich) with the PreCellys 24 homogenizer and CK14 beads-containing tubes (two cycles of 25 seconds at 6500 rpm). HER2 expression was determined by ELISA (Calbiochem, Darmstadt, Germany, c-ErbB2/c-Neu Rapid Format ELISA Ki, Cat. Nr: QIA10-1EA) according to manufacturer's instructions.

[5] = test system: HER2; assay: Western blot of HER2 protein expression in drug-treated SKOV-3 cells; format: cell-based, human; details: NVP-AUY922 for 24 h, compared to untreated controls
Procedure: For all uptake studies in response to drug treatment, 2.5×10^5 SKOV-3 cells were seeded in complete medium 48 h prior to uptake experiments. […] Cells were lysed in RIPA buffer containing protease and phosphatase inhibitors (from Sigma-Aldrich). Equal amounts of protein (20 μg) were resolved on 4-15% mini-protean TGX gels (Biorad, Hercules, Calif.) and transferred to PVDF membranes (Trans-Blot Turbo Transfer Packs, Biorad). Membranes were blocked for 1 h in 5% milk in Tris-buffered saline containing 0.1% v/v tween (TBST, Cell Signaling, Danvers, Mass.) and incubated with antibodies against HER2 (Cell Signal, Cat. Nr: 2165 for visualization of p95HER2 and full-length HER2 bands and Cat. Nr: 4290 for blots where only full-length HER2 is shown), EGFR (Cell Signal, Cat. Nr: 4267) or (3-actin (Abcam, Cambridge, United Kingdom, Cat. Nr: ab6276) overnight at 4° C. Secondary HRP-conjugated mouse and rabbit antibodies (Santa Cruz Biotechnology, Dallas, Tex.) were applied for one h at room temperature. Signals were visualized using Amersham ECL™ Western Blotting Detection Reagent (GE Healthcare) and Amersham Hyper-film (GE Healthcare).

[6] = test system: NCI-N87 tumors; assay: Fluorescent GE-226 localization versus DAKO HercepTest, NCI-N87 tumors; format: in vivo, mice; details: 15 mg/kg i.v., tumors excised two h post injection
Procedure: (§1) The bilateral A431/NCI-N87 model was established by s.c. injection of A431 (1×10^7 cells) and NCI-N87 cells (2×10^6 cells) in 100 μL PBS mixed 1:1 with Matrigel™ in the lower flanks of 4-6 week old male CD-1 nude mice (Charles River Laboratories, Wilmington, Mass.). Tumor volumes were monitored frequently as described above and when they reached 50-100 mm^3 (approximately 3-4 weeks), mice were administered a mixture of Hoechst (˜20 mg/kg) and fluorescein-conjugated-GE226[SEQ ID NO 1] (˜15 mg/kg) in 100 μL PBS i.v. through the tail vein. The tumors were excised 120 minutes post injection, immediately fixed in formalin and embedded in paraffin. Sections were sliced and stored in the dark at −80° C. Immunofluorescent images were acquired at 400× magnification. Adjacent tumor sections were immunohistochemically stained with HercepTest™.
(§2) HER2 protein expression in excised tumors was assessed using the HercepTest™ (Dako, Ely, United Kingdom, Cat. Nr: K5204) according to manufacturer's instructions.
(§3) To examine cellular localization, GE-226[SEQ ID NO 1] was labeled with fluorescein and compared localization and fluorescent intensity in tumor sections with FDA approved DAKO HercepTest™. In contrast to PET experiments, normalization to injected dose is not possible with fluorescent compounds. To eliminate inter-subject variability, experiments were performed in bilateral tumor-bearing mice. […]

[7] = test system: A431 tumors; assay: Fluorescent GE-226 localization versus DAKO HercepTest, A431 tumors; format: in vivo, mice; details: 15 mg/kg i.v., tumors excised two h post injection; HER2 negative
Procedure: as §1, §2, §3

## C=CCNC1=C2C[C@@H](C)C[C@H](OC)[C@H](O)[C@@H](C)/C=C(\C)[C@H](OC(N)=O)[C@@H](OC)/C=C\C=C(/C)C(=O)NC(=CC1=O)C2=O [17-allylaminogeldanamycin]
[1]
  effect on HER2: degrades HER2

## CCNC(=O)c1noc(-c2cc(C(C)C)c(O)cc2O)c1-c1ccc(CN2CCOCC2)cc1 [NVP-AUY922, reference compound]
[2]; 3 doses of 50 mg/kg NVP-AUY922
  effect on tracer uptake in vivo: decreased tracer uptake
[2]; three daily doses of 50 mg/kg NVP-AUY922, vehicle 618.4±90.1, P=0.043
  AUC0_60 of [18F]GE-226 after drug: 446.7±42.8 % ID/mL*min
[2]; three daily doses of 50 mg/kg NVP-AUY922 i.p., vehicle 13.5±2.1
  NUV60 of [18F]GE-226 after drug: 9.0±0.9 % ID/mL
[3]
  effect on tracer uptake in SKOV-3 cells: reduced tracer uptake
[4]
  effect on HER2 expression in tumors: reduced HER2 expression
[5]
  effect on HER2 protein expression: dose-dependent HER2 degradation; also recorded: dose-dependent decrease of HER2 protein expression

## fluorescein-GE-226: GE-226[SEQ ID NO 1] labeled with fluorescein
[6]
  localization of fluorescent staining versus HER2: co-localized with regions that are HER2 positive
[6]; listed as fluorescently labeled tracer analogue
  localization of fluorescent staining versus HER2: co-localized with HER2 expression at the cellular level
[7]
  fluorescent staining: negligible
